Test results: article PMC9964242 (Vaccines, 2023)
≈ marks a conversion by molar mass, not a printed value. Where “and” joins values, the source holds several entries; their conditions need not be identical. Identical values can stand only once. Like-named read-outs stand apart in the source and are kept apart here.

Columns and labels:
[1] = tested on: influenza A/Egypt/NRC098/2019(H1N1)
in vitro = conditions: dog
[2] = tested on: influenza A/Egypt/NRC098/2019(H1N1); experiment: microbe, parasite or virus in culture; conditions: H1N1, MDCK
[3] = tested on: influenza A/chicken/Egypt/N12640A/2016 (H5N1); experiment: microbe, parasite or virus in culture; format: cell-based, influenza A/H5N1 virus; conditions: for IC50: Influenza A virus, H5N1, MDCK, read-out: IC50 (half-maximal inhibitory concentration)
[4] = tested on: seasonal influenza A/H1N1 virus; format: cell-based
[5] = tested on: seasonal influenza A/H1N1 virus; format: cell-based; conditions: for Viral inhibition / inactivation of viral infectivity through direct viricidal action: 10–100 µg/mL
[6] = tested on: seasonal influenza A/H1N1 virus; format: cell-based; remark: listed apart in the source
MDCK cells [7] = tested on: MDCK cells
A/ShanTou/169/06 (H1N1) = conditions: cited from earlier work
MDCK cells [8] = conditions: cited from earlier work
Zika virus = conditions: cited from earlier work
[9] = read-out: IC50 (half-maximal inhibitory concentration)

SMILES	SI (selectivity index = CC50/IC50) [1]	CC50 (in vitro) [µg/mL]	IC50 [2, 9] [µg/mL]	CC50 (half-maximal cytotoxic concentration) (MDCK cells [7]; dog) [µg/mL]	Antiviral activity against A/H1N1 (in words) [1]	IC50 relative to CC50 (in words) [1]	also measured
OC[C@@H](O)[C@@H](O)[C@H](O)[C@@H](O)CO [D-sorbitol]	>3.215	> 10000	3110 (≈ 17100 µM)	–	–	–	–
OC[C@H]1O[C@@H](Oc2ccc(O)cc2)[C@H](O)[C@@H](O)[C@@H]1O [Arbutin]	>13.09	> 10000	764 (≈ 2810 µM)	–	–	–	–
CC[C@H](CC[C@@H](C)[C@H]1CC[C@H]2[C@@H]3CC=C4C[C@@H](O[C@@H]5O[C@H](CO)[C@@H](O)[C@H](O)[C@H]5O)CC[C@]4(C)[C@H]3CC[C@]12C)C(C)C [β-sitosterol-O-glucoside]	2434	1750 (≈ 3030 µM)	0.719 (≈ 1.25 µM)	1750 (≈ 3030 µM)	–	–	IC50 [3]: 0.613 µg/mL (≈ 1.06 µM); Plaque reduction %, Viral Replication [4]: 28.7% and 37.7% and 52.8%; Plaque reduction %, Viricidal [5]: 83.6% and 93.3% and 97.1%; Viral inhibition / inactivation of viral infectivity through direct viricidal action [5]: up to 90%; Plaque reduction %, Viral Adsorption [6]: 35.8% and 48.3% and 56.9%
COc1cc(C2Oc3cc([C@H]4Oc5cc(O)cc(O)c5C(=O)[C@@H]4O)ccc3OC2CO)ccc1O (some centres unmarked) [Silybin]	–	9480 (≈ 19700 µM)	–	9480 (≈ 19700 µM)	poor anti-influenza potential	IC50 > CC50	EC50 (A/ShanTou/169/06 (H1N1)): 70.8 ± 8.11 µM; CC50 (MDCK cells [8]): > 400 µM
CC(=O)N[C@H]1[C@H]([C@H](O)[C@H](O)CO)OC(C(=O)O)=C[C@@H]1N=C(N)N [Zanamivir, reference compound]	>12,626	> 10000	0.792 (≈ 2.38 µM)	–	–	–	SI (selectivity index = CC50/IC50) [3]: >37,736; IC50 [3]: 0.265 µg/mL (≈ 0.797 µM)
O=C[C@H](O)[C@@H](O)[C@@H](O)[C@H](O)C(=O)O [D-Galacturonic acid, Galacturonic acid]	–	9610 (≈ 49500 µM)	–	9610 (≈ 49500 µM)	–	IC50 > CC50	–
COc1cc(C=O)ccc1O [Vanillin]	–	242 (≈ 1590 µM)	–	242 (≈ 1590 µM)	–	IC50 > CC50	–
O=C1c2cccc(O)c2C(=O)c2c(O)cc(CO)cc21 [Aloe emodin]	3.127	2280 (≈ 8440 µM)	729 (≈ 2700 µM)	2280 (≈ 8440 µM)	–	–	–
O=c1c(O[C@@H]2O[C@H](CO)[C@@H](O)[C@H](O)[C@H]2O)c(-c2ccc(O)c(O)c2)oc2cc(O)cc(O)c12 [Isoquercitrin]	4.25	710 (≈ 1530 µM)	167 (≈ 360 µM)	710 (≈ 1530 µM)	poor antiviral potential	–	–
O=c1cc(-c2ccccc2)oc2cc(O)ccc12 [7-Hydroxy flavone]	16.194	5830 (≈ 24500 µM)	360 (≈ 1510 µM)	5830 (≈ 24500 µM)	poor antiviral activity	–	–
O=C1CC(c2ccccc2)Oc2ccccc21 (centres unmarked) [Flavanone]	–	–	–	–	–	IC50 > CC50	CC50 (half-maximal cytotoxic concentration) (MDCK cells [7]): 450 µg/mL (≈ 2010 µM)
O=C1C[C@@H](c2ccccc2)Oc2cc(O)cc(O)c21 [Pinocembrin]	–	> 10000	> 10000	–	poor anti-H1N1 activity	–	–
C[C@@H]1CC[C@@]2(OC1)O[C@H]1[C@@H](O)[C@H]3[C@@H]4CC[C@H]5C[C@@H](O[C@@H]6O[C@H](CO)[C@H](O[C@@H]7O[C@H](CO)[C@@H](O)[C@H](O[C@@H]8OC[C@@H](O)[C@H](O)[C@H]8O)[C@H]7O[C@@H]7O[C@H](CO)[C@H](O)[C@H](O[C@@H]8O[C@H](CO)[C@@H](O)[C@H](O)[C@H]8O)[C@H]7O)[C@H](O)[C@H]6O)[C@H](O)C[C@]5(C)[C@H]4CC[C@]3(C)[C@H]1[C@@H]2C [Digitonin]	20.56	442 (≈ 360 µM)	21.5 (≈ 17.5 µM)	442 (≈ 360 µM)	moderate antiviral activity	–	IC50 (Zika virus): 7.91 µM; IC50 [2]: 21.6 µg/mL (≈ 17.5 µM)
O=C(O)/C=C/c1ccccc1O [O-Coumaric acid]	–	9170 (≈ 55900 µM)	–	9172 (≈ 55900 µM)	–	IC50 > CC50	–
C[C@]12CC[C@@H]3c4ccc(O)cc4CC[C@H]3[C@@H]1CC[C@@H]2O [Estradiol, estradiol, reference compound]	–	> 5000	–	–	–	–	IC50 [2]: 7.1 µg/mL (≈ 26.1 µM)
C[C@@H]1O[C@@H](Oc2cc(O)c3c(=O)c(O[C@@H]4O[C@@H](C)[C@H](O)[C@@H](O)[C@H]4O)c(-c4ccc(O)cc4)oc3c2)[C@H](O)[C@H](O)[C@H]1O [Kaempferitrin]	>209.20	> 10000	47.8 (≈ 82.6 µM)	–	moderate antiviral activity	–	–
Cc1cc(O)c2c(c1)C(=O)c1cccc(O)c1C2=O [Chrysophanic acid]	–	46.1 (≈ 181 µM)	–	46.1 (≈ 181 µM)	–	IC50 > CC50	–
O=C[C@H](O)[C@@H](O)[C@H](O)[C@H](O)C(=O)O [D-Glucuronic acid, Glucuronic acid]	–	10300 (≈ 52800 µM)	–	10260 (≈ 52800 µM)	–	IC50 > CC50	–
C[C@@H]1O[C@@H](O[C@H]2[C@H](Oc3cc(O)c4c(c3)O[C@H](c3ccc(O)cc3)CC4=O)O[C@H](CO)[C@@H](O)[C@@H]2O)[C@H](O)[C@H](O)[C@H]1O [Naringin]	>485.43	> 10000	20.6 (≈ 35.5 µM)	–	moderate antiviral activity	–	IC50 [2]: 20.7 µg/mL (≈ 35.6 µM)
CC[C@H](CC[C@@H](C)[C@H]1CC[C@H]2[C@@H]3CC=C4C[C@@H](O)CC[C@]4(C)[C@H]3CC[C@]12C)C(C)C [β-sitosterol]	10,154	9900 (≈ 23900 µM)	0.975 (≈ 2.35 µM)	9900 (≈ 23900 µM)	–	–	IC50 [3]: 0.295 µg/mL (≈ 0.711 µM); Plaque reduction %, Viral Replication [4]: 31.8% and 41.2% and 52.9%; Plaque reduction %, Viricidal [5]: 84% and 98.5% and 99%; Viral inhibition / inactivation of viral infectivity through direct viricidal action [5]: up to 90%; Plaque reduction %, Viral Adsorption [6]: 28% and 37.5% and 52.5%
C=C(C)[C@@H]1CC[C@]2(C)CC[C@]3(C)[C@H](CC[C@@H]4[C@@]5(C)CC[C@H](O)C(C)(C)[C@@H]5CC[C@]43C)[C@@H]12 [Lupeol]	5.98	560 (≈ 1310 µM)	93.6 (≈ 219 µM)	560 (≈ 1310 µM)	–	–	IC50 [2]: 93.7 µg/mL (≈ 220 µM)
